{
  "source": "patent US7572434B2",
  "about": "“Method for assessing the effect of a drug on long term memory formation” (Cold Spring Harbor Laboratory, priority 1994, dated 2009)",
  "molecules": {"B1": {"name": "dCREB2-a: Drosophila dCREB2 isoform, PKA-responsive transcriptional activator (SEQ ID NO.: 2), expressed from RSV-dCREB2-a (protein, listed as Drosophila sp.)", "chain": "MDNSIVEENGNSSAASGSNDVVDVVAQQAAAAVGGGGGGGGGGGGGGNPQQQQQNPQSTTAGGPTGATNNAQGGGVSSVLTTTANCNIQYPIQTLAQHGLQVSIWGPGAWCQLSSVRCYGSQPEVATKDVQSVIQANPSGVIQTAAGTQQQQQALAAATAMQKVVYVAKPPNSTVIHTTPGNAVQVRNKIPPTFPCKIKPEPNTQHPEDSDESLSDDDSQHHRSELTRRPSYNKIFTEISGPDMSGASLPMSDGVLNSQLVGTGAGGNAANSSLMQLDPTYYLSNRMSYNTNNSGIAEDQTRKREIRLQKNREAARECRRKKKEYIKCLENRVAVLENQNKALIEELKSLKELYCQTKND"}},
  "key": {"wild-type (Can-S) flies": {"system": "wild-type (Can-S) flies", "assay": "Pavlovian olfactory learning: memory retention after massed or spaced training in flies fed cycloheximide", "assay_type": "in vivo, Drosophila", "conditions": "for one-day memory after massed training: vs control flies; for one-day memory retention after spaced training: vs glucose-fed flies", "experimental": "For experiments on one day retention after massed or spaced training, flies were fed 35 mM CXM and (w/v) 5% glucose dissolved in 3% ethanol. Groups of 100 flies were placed in feeding tubes (Falcon 2017) containing one 1.0×2.5 cm Whatmann 3MM filter paper strips that was soaked with a total of 126 μl of solution.\nThe feeding period was limited to 12-14 hrs prior to training, or to the 24-hr retention interval after training. Flies which were fed prior to training were transferred directly to the training apparatus after feeding, subjected to massed or spaced training, then transferred to test tubes containing filter paper strips soaked with 5% glucose during the 24-hr interval. Flies which were fed after training were trained, then transferred immediately to test tubes containing filter paper strips soaked with 5% glucose solution which was laced with 35 mM CXM. Flies remained in the test tubes for the duration of the 24-hr retention interval.\nFlies were trained with an automated version of the learning procedure of Tully, T. and W. G. Quinn, J. Comp. Physiol., 157: 263-277 (1985). In brief, flies were trapped in a training chamber, the inside of which was covered with an electrifiable copper grid. Groups of about 100 flies were exposed sequentially to two odors [either octanol (OCT) or methylcyclohexanol (MCH)], which were carried through the training chamber in a current of air, for 60 seconds with 45 seconds rest intervals after each odor presenation. During exposure to the first odor, flies also were subjected to twelve 1.5-second pulses of 60 V DC with a 5-second interpulse interval. After training, flies were transferred to food vials for a particular retention interval. Conditioned odor-avoidance responses then were tested by transferring flies to the choice point of a T-maze, where they were exposed simultaneously to OCT and MCH carried in the distal ends of the T-maze arms and out the choice point on converging currents of air. Flies were allowed to distribute themselves in the T-maze arms for two minutes, after which they were trapped in their respective arms, anesthetized and counted. The “percent correct” then was calculated as the number of flies avoiding the shock-paired odor (they were in the opposite T-maze arm) divided by the total number of flies in both arms. (The number of flies left at the choice point, which usually was less than 5%, were not included in this calculation). Finally, a performance index (PI) was calculated by averaging the percent corrects of two reciprocal groups of flies—one where OCT and shock were paired, the other where MCH and shock were paired—and then by normalizing the average so that a PI=0 represented a 50:50 distribution in the T-maze and a PI=100 represented 100% avoidance of the shock-paired odor. For these studies, three different training protocols were used: 1. One-cycle training consisted of the training session just described. 2. Massed training consisted of 10 of these training cycles delivered one right after the other. 3. Spaced training consisted of 10 training cycles with a 15-min rest interval between each. One-cycle training was used to assay learning, while massed and spaced was used to assay consolidated memories.\nA. One-day memory in wild-type flies fed CXM before or immediately after massed or spaced training (FIG. 8): PIs from these four drug treatments (−CXM before, −CXM after, +CXM before and +CXM after) and two training procedures (massed and spaced) were subjected to a TWO-WAY ANOVA with DRUG (F(3,56)=8.93; P<0.001) and TRAINing (F(1,56)=18.10, P<0.001) as main effects and DRUG×TRAIN (F(3,56)=4.68, P=0.006) as the interaction term. The six planned comparisons were judged significant if P≦0.01.\nDifferent groups of wild-type (Can-S) flies were fed 5% glucose solution alone (hatched bars) or laced with 35 mM CXM (striped bars) either for 12-14 hr overnight before massed or spaced training or for the 24-hr retention interval immediately after training. […]"}, "[1]": {"biological_target": "T1, DNOS (Drosophila nitric oxide synthase) (Drosophila melanogaster, UniProt Q27571, DUP33-33/S105L/S1197R/S20A/S287C)", "T1 construct": "contained dNOS cDNA (with an XbaI site engineered immediately upstream of the ATG codon) cloned into the XbaI and SmaI sites; made in house; host or cells: 293 human embryonic kidney cells, transient calcium-phosphate transfection; unpurified soluble protein extract", "T1 sequence (Q27571 other isoform, or with tags, fused parts or gaps S20A/DUP33-33/S105L/S287C/S1197R)": "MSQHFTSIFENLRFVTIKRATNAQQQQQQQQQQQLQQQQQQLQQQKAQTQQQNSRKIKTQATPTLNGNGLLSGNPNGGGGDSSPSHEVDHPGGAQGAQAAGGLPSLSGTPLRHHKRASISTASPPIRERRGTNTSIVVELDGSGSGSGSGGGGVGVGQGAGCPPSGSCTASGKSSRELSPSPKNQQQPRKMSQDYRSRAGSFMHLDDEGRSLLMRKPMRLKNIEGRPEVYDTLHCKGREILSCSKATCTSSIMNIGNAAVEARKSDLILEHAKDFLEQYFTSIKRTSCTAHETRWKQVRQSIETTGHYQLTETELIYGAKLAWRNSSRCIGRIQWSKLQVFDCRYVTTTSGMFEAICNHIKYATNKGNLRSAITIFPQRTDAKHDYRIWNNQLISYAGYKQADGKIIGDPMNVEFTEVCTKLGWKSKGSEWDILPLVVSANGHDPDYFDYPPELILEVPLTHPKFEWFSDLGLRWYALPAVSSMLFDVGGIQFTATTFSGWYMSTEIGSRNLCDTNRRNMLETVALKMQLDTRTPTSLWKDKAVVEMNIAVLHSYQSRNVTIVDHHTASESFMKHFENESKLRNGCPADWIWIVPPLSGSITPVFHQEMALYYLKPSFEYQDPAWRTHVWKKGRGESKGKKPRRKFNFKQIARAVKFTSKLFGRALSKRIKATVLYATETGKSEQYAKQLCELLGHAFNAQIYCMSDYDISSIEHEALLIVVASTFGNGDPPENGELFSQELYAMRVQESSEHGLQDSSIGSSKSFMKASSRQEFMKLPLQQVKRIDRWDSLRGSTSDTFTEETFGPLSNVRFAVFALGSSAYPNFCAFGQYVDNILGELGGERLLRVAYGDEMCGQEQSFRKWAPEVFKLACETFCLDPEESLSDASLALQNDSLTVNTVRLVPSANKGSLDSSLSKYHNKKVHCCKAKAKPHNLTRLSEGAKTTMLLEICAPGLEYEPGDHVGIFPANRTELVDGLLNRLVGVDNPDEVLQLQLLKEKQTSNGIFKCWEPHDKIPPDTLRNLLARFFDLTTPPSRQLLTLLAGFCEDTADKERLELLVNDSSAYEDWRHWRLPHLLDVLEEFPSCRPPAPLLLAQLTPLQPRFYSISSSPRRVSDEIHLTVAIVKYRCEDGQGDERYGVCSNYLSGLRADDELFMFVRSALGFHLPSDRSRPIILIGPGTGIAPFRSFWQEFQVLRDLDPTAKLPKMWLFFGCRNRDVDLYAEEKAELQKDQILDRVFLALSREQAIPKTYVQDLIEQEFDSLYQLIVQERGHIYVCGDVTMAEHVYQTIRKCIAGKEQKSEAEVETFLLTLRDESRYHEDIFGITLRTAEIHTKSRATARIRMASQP", "assay": "DNOS enzyme activity, conversion of 3H-L-arginine to 3H-L-citrulline in extracts of dNOS-transfected 293 cells", "assay_type": "biochemical", "description": "[In a parallel experiment, the specific activity of rat neuronal NOS expressed from the same vector in 293 cells was 3.0±0.02 pmol/mg/min, N=4]. DNOS activity was dependent on exogenous Ca^2+/calmodulin and on NADPH, two cofactors necessary for activity of constitutive mammalian NOSs (Iyengar, R., Proc. Natl. Acad. Sci. USA, 84: 6369-6373 (1987); Bredt, D. S., Proc. Natl. Acad. Sci. USA, 87: 682-685 (1990)). DNOS activity was reduced 90% by the Ca^2+ chelator EGTA (FIG. 17B, group C). Also, 500 μM N-(6-aminohexyl)-1-naphthalene-sulfonamide (W5), a calmodulin antagonist which inhibits activity of neuronal NOS (Bredt, D. S., Proc. Natl. Acad. Sci. USA, 87: 682-685 (1990)), diminished DNOS activity to 18% (0.0222±0.001 pmol/mg/min, N=2). In the absence of exogenous NADPH, DNOS (or nNOS) activity was reduced 20% (0.1061±0.011 pmol/mg/min, N=4 for DNOS; 2.7935±0.033 pmol/mg/min, N=2 for NNOS). DNOS activity also was blocked by inhibitors of mammalian NOSs (Rees, D. D., Br. J. Pharmacol., 101: 746-752 (1990)).\nThe expression construct for activity assays contained dNOS cDNA (with an XbaI site engineered immediately upstream of the ATG codon) cloned into the XbaI and SmaI sites of the pCGN expression vector (M. Tanaka and W. Herr, Cell, 60: 375 (1990)). 293 human kidney cells were transfected with 15 μg of the dNOS construct, or vector DNA, and precipitated with calcium phosphate as described in (M. J. Imperiale, L. T. Feldman and J. R. Nevins, Cell, 35: 127 (1983)). Cells were collected 2 days later and protein extracts were prepared as described in (J. Sambrook, E. F. Fritsch, T. Maniatis, Molecular Cloning: A Laboratory Manual (Cold Spring Harbor Laboratory, Cold Spring Harbor, N.Y., 1989)).\nThe enzymatic assay was done essentially as described previously (D. Bredt and S. Snyder, Proc. Natl. Acad. Sci. USA, 87: 682 (1990)). A […] containing 25 μl (50-100 μg) of soluble protein extract, 50 mM Hepes pH 7.4, […], 3 μM FMN, 10 μM tetrahydrobiopterin (ICN), 1 mM DTT, 0.8 mM CaCl2, 1 mM NADPH, 10 μg/ml calmodulin, 2 μl of [^3H]L-arginine (35.7 Ci/mmol, NEN) and 50 mM L-valine in was incubated for 60 minutes at 37° C. The reaction was stopped with 0.5 ml 20 mM Hepes pH 5.5, 2 mM EDTA, 2 mM EGTA, loaded on 0.5 ml Dowex AG 50WX-8 (Na^+ form) column and eluted with 3×0.5 ml of the stop buffer. Radioactivity present in the eluent was quantified in a scintillation counter.\nEnzymatic activity was detected only in cells transfected with dNOS cDNA construct (groups B-D) and is presented as specific activity (pmol of citrulline/mg/min.). The DNOS activity also was measured in the presence of 1 mM EGTA without exogenous Ca^2+ or calmodulin (group C), or in the presence of […] (group D). N=4 reactions per group."}, "[2]": {"system": "PKA-responsive transcription (CRE-directed reporter) in F9 cells", "assay": "PKA-responsive transcription from the CRE-containing D(-71) CAT reporter in transiently transfected F9 cells", "assay_type": "cell-based", "conditions": "cotransfection of dCREB2-a and PKA; CAT/βgal ratios standardized to PKA-transfected dishes", "experimental": "Undifferentiated F9 cells were maintained and transfected using the calcium phosphate method as described in Darrow, A. L. et al., “Maintenance and Use of F9 Teratocarcinoma Cells”, In Meth. Enzymol., v. 190 (1990), except that chloroquine was added to […] immediately before transfection and precipitates were washed off ten hours after transfection, at which time the dishes received fresh chloroquine-free medium. Amounts of DNA in transfections were made equivalent by adding RSV-0 where required. Cells were harvested 30 hours after transfection. Extracts were made by three cycles of freeze/thawing, with brief vortexing between cycles. Particulate matter was cleared from extracts by ten minutes of centrifugation in the cold. β-galactosidase assays were performed as described in Miller, J. H., Experiments in Molecular Genetics, Cold Spring Harbor Laboratory, Cold Spring Harbor, N.Y., 1972. CAT assays were performed as described in Sheen, J. Y. and B. Seed, Gene, 67: 271-277 (1988) using aliquots of extract heat-treated at 65° C. for ten minutes and centrifuged for ten minutes to remove debris. Results reported are from three experiments run on different days with at least three dishes per condition within each experiment. Error bars represent standard error of the mean, with error propagation taken into account (Grossman, M. and H. W. Norton, J. Hered., 71: 295-297 (1980)).\nF9 cells were transiently transfected with 10 μg of D(−71) CAT plasmid as a CRE-directed reporter. 5 μg of RSV-βgal reporter was included in each dish as a normalization control for transfection efficiency. Different groups received 8 μg of dCREB2-a expression vector and 4 μg of PKA expression vector, separately or in combination. Results are expressed as CAT/Pgal enzyme activity ratios, standardized to values obtained with PKA-transfected dishes. […]\nTwo different dCREB2 isoforms, dCREB2-a and dCREB2-b, have opposite roles in PKA-responsive transcription. […] CREB-dependent changes in gene expression were measured using a cotransfected construct that has a CRE-containing promoter fused to a reporter gene."}, "[3]": {"conditions": "35 mM CXM fed 12-14 hr before training"}, "[4]": {"conditions": "35 mM CXM fed for the 24-hr retention interval after training"}, "[5]": {"conditions": "flies fed CXM immediately before or after training"}},
  "data": [
    {"molecule": "C[C@@H]1C[C@@H]([C@H](O)CC2CC(=O)NC(=O)C2)C(=O)[C@@H](C)C1", "note": "[CXM, cycloheximide]", "values": [
      {"measurement": "one-day memory after massed training", "setting": "wild-type (Can-S) flies; [3]", "result": "no difference was detected"},
      {"measurement": "one-day memory retention after spaced training", "setting": "wild-type (Can-S) flies; [3]", "result": "significantly lower than normal"},
      {"measurement": "one-day memory after massed training", "setting": "wild-type (Can-S) flies; [4]", "result": "no difference was detected"},
      {"measurement": "one-day memory retention after spaced training", "setting": "wild-type (Can-S) flies; [4]", "result": "significantly lower than normal"},
      {"measurement": "anesthesia-resistant memory (ARM)", "setting": "wild-type (Can-S) flies; [5]", "result": "not affected"},
      {"measurement": "long-term memory (LTM)", "setting": "wild-type (Can-S) flies; [5]", "result": "completely blocked"}
    ]},
    {"molecule": "O=C(O)CN(CCOCCOCCN(CC(=O)O)CC(=O)O)CC(=O)O", "note": "[EGTA]", "values": [
      {"measurement": "DNOS activity reduced", "setting": "[1]; 1 mM EGTA without exogenous Ca2+ or calmodulin (FIG. 17B, group C)", "result": 90, "unit": "%"}
    ]},
    {"molecule": "COC(=O)[C@@H](N)CCCNC(=N)N[N+](=O)[O-]", "note": "[L-NAME, N^G-nitro-L-arginine methyl ester]", "values": [
      {"measurement": "DNOS activity reduced", "setting": "[1]; 100 mM L-NAME with exogenous Ca2+/calmodulin (FIG. 17B, group D)", "result": 84, "unit": "%"}
    ]},
    {"molecule": "CC(=O)O.CNC(=N)NCCC[C@H](N)C(=O)O", "note": "[N^G-monomethyl-L-arginine acetate]", "values": [
      {"measurement": "block of DNOS activity", "setting": "[1]; 100 μM N^G-monomethyl-L-arginine acetate", "result": "complete block"},
      {"measurement": "DNOS specific activity", "setting": "[1]; 100 μM N^G-monomethyl-L-arginine acetate, N=2", "result": "0.0001 ± 0.0002", "unit": "pmol/mg/min"}
    ]},
    {"molecule": "NCCCCCCNS(=O)(=O)c1cccc2ccccc12", "note": "[W5, N-(6-aminohexyl)-1-naphthalene-sulfonamide]", "values": [
      {"measurement": "DNOS specific activity", "setting": "[1]; 500 μM W5, N=2", "result": "0.0222 ± 0.001", "unit": "pmol/mg/min"},
      {"measurement": "remaining activity at 500 µM", "setting": "[1]; 500 μM W5, read-out: DNOS activity diminished to (remaining activity)", "result": 18, "unit": "%"}
    ]},
    {"molecule": "B1", "values": [
      {"measurement": "activation of CRE reporter relative to PKA alone", "setting": "[2]", "result": 5.4, "unit": "fold"}
    ]}
  ]
}
